# Laboratory results: US7049340B1, “Neuroprotective and retinoprotective ophthalmologic drugs” (priority 1999, dated 2006)
# Like-named read-outs stand apart in the source and are kept apart here.
# Tests used:
# [1] = biological target: T1, rabbit converting enzyme (Oryctolagus cuniculus, UniProt P12822); test: In vitro inhibition of rabbit converting enzyme (Bünning and Shapiro methods); type: biochemical
# T1 construct: host or cells: rabbit lung (only from the title of the cited Shapiro thesis)
# T1 sequence (P12822 34-1310): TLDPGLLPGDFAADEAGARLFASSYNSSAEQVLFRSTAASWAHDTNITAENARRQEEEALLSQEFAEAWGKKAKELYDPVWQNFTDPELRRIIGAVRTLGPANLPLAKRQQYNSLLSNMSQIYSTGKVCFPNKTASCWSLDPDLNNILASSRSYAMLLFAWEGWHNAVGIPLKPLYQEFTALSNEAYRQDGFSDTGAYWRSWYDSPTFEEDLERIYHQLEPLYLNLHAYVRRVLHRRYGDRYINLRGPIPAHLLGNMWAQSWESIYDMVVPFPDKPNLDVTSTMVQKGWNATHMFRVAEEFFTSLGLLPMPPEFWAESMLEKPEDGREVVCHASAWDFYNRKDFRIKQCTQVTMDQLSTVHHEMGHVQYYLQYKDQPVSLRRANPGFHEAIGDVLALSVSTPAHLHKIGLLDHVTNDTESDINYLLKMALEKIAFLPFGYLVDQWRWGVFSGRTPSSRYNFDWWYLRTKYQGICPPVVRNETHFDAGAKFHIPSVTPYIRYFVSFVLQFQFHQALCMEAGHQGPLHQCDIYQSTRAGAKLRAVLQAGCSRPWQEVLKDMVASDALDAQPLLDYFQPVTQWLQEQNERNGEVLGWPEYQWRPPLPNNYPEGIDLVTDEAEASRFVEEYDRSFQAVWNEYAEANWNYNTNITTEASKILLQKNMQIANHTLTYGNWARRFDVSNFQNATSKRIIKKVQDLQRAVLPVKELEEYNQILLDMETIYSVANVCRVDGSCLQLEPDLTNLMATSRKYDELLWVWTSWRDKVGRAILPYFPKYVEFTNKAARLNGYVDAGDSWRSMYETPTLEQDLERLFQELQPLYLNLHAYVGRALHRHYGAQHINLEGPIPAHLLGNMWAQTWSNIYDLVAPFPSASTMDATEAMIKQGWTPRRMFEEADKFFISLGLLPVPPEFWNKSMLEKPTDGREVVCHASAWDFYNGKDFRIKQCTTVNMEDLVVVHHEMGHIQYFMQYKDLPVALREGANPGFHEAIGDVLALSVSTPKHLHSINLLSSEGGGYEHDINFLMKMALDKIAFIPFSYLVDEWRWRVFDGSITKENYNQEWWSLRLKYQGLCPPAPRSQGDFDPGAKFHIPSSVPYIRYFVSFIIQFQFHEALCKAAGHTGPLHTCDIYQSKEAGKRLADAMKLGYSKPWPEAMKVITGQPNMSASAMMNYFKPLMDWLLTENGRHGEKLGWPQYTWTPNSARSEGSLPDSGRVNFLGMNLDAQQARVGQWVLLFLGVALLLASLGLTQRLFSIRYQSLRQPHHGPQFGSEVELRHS
# From the text: Doubtless, such drugs intervene in the CEI action mechanism, in that they act by preventing the transformation of angiotensin I to angiotensin II (vasoconstrictor) and the degradation of bradykinins (vasodilators). These CEIs thus cause vasodilation, which is exerted on arteries and on veins. Thus, they are mixed vasodilators. It should be remembered that the mechanism for the formation of the bond that can be formed between the inhibitor and the enzyme normally occurs in two phases, the first consisting of the formation of an inhibitor-enzyme complex by a competitive bond, which involves a reaction governed by a constant K1, and the second, consisting of a slow isomerisation of the inhibitor-enzyme complex, itself also governed by a reversible rate constant for this reaction, k4.
# Comparison with captopril and enalaprilat” in Drug Research 1984; 34:1406–1410, and the doctoral thesis by Shapiro R. (Ph.D. Thesis, Harvard University Cambridge, Mass., 1983 “Activation and inactivation of rabbit pulmonary angiotensin converting enzyme”.
# [2] = tested on: treated patients; test: Visual function in treated patients, enalaprilat used instead of ramipril; type: in vivo, human; conditions: comparison enalaprilat vs ramiprilat
# From the text: It should be remembered that the physico-chemical indications described above originate from the article by Vasmant et al., loc. cit.
# [3] = tested on: healthy subject; test: General arterial pressure at doses that improve field of vision; type: in vivo, human; conditions: in vivo
# From the text: Effective doses for producing effects in the ophtalmologic field are desirably lower than doses that would induce general arterial hypotension in a subject with normal pressure. Clearly, the doses that can be used can be higher in subjects with hypertension, although this is not necessary, since the desired effect is that obtained in the ophtalmologic field.
# [4] = biological target: T1, rabbit converting enzyme; conditions: cited from earlier work
Compound,stability of enzyme complex relative to enalaprilat ([1]; from k4),Ki relative to enalaprilat ([1]; printed as 'higher than with enalaprilat') [times],improvement in visual function in treated patients [2],effect on arterial pressure of doses that improve field of vision [3],"Ki ([4]; unit inferred, read-out: constant Ki) [nM]",constant k4 ([4]; unit not given),"constant k4 for the reversible isomerisation of the enzyme-inhibitor complex ([4]; 50 mM/l Hepes, 300 mmol/l NaCl, 1 micromol/l ZnCl2, pH 7.5)","Ki ([4]; in vitro, 50 mM/l Hepes, 300 mmol/l NaCl, 1 micromol/l ZnCl2, pH 7.5, read-out: equilibrium inhibition constant K) [nM]"
C[C@H](N[C@@H](CCc1ccccc1)C(=O)O)C(=O)N1[C@H](C(=O)O)C[C@@H]2CCC[C@@H]21 [ramiprilat],six times more stable,7,incomparably better,do not cause arterial hypertension,0.007,1.8×10^−5,,
C[C@H](N[C@@H](CCc1ccccc1)C(=O)O)C(=O)N1CCC[C@H]1C(=O)O [enalaprilat],,,moderate improvement,,,,1.1×10^−4 S1,0.05
